The results in this text go back to ChEMBL document CHEMBL1135887, “Substituted pentacyclic carbazolones as novel muscarinic allosteric agents: synthesis and structure-affinity and cooperativity relationships” (J Med Chem, 2002).

Assay [1] deals with T1, Muscarinic acetylcholine receptor M1 (Homo sapiens) (UniProt P11229).
T1 sequence (whole entry): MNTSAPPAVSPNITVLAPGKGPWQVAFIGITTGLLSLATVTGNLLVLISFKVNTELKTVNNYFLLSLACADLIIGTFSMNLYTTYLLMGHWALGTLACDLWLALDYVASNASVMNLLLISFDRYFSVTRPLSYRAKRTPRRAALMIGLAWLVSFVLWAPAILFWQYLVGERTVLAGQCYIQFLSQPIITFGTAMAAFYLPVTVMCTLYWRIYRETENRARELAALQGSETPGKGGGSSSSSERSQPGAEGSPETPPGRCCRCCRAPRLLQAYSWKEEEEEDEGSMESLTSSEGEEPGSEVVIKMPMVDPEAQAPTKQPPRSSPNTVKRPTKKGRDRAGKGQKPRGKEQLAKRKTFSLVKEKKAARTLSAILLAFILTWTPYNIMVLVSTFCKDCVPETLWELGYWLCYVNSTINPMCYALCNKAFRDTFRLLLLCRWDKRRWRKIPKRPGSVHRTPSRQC
As to the kind of experiment: Logarithm of affinity (log 1/M) at the free muscarinic acetylcholine receptor M1 by using semiquantitative equilibrium and off-rate assay.

Assay [2] deals with T1, Muscarinic acetylcholine receptor M1 (Homo sapiens). Briefly: Logarithm of affinity (log 1/M) at the (N-methyl Scopolamine) NMS-liganded muscarinic acetylcholine receptor M1 by using semiquantitative equilibrium and off-rate assay.
In assay [3] the target is T2, Muscarinic acetylcholine receptor M4 (Homo sapiens) (UniProt P08173).
T2 sequence (whole entry): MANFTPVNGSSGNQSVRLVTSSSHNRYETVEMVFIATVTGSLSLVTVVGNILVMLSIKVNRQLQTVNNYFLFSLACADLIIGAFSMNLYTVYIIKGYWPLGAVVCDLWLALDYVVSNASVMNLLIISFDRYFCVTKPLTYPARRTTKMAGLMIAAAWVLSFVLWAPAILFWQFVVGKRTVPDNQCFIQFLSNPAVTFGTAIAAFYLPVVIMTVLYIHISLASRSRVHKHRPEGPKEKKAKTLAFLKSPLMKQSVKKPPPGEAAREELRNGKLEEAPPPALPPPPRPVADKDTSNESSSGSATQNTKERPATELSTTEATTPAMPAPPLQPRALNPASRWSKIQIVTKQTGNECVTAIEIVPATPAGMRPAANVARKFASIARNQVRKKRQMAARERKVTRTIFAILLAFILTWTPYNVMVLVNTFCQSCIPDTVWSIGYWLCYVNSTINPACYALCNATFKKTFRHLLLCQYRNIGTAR
Briefly: Subtype selectivity and cooperativity with N-methyl Scopolamine (NMS) at Muscarinic acetylcholine receptor M4; Activity range is 1.2-3.

Assay [4] deals with T3, Muscarinic acetylcholine receptor M2 (Homo sapiens) (UniProt P08172).
T3 sequence (whole entry): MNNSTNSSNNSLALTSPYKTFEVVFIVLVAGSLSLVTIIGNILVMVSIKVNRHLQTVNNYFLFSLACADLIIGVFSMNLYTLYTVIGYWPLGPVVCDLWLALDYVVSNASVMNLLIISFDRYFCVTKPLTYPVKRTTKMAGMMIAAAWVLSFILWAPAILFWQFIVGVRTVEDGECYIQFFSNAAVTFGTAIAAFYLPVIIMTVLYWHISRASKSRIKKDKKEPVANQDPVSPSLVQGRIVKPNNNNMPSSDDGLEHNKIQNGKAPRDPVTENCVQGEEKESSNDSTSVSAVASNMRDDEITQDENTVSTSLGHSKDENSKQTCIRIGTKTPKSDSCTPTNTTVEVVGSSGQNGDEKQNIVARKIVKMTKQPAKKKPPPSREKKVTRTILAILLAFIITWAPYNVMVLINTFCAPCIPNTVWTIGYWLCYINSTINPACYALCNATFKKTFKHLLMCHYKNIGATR
Briefly: Logarithm of affinity (log 1/M) at the (N-methyl Scopolamine) NMS-liganded muscarinic acetylcholine receptor M2 by using semiquantitative equilibrium and off-rate assay.

The target in assay [5] is T2, Muscarinic acetylcholine receptor M4 (Homo sapiens). Briefly: Logarithm of affinity (log 1/M) at the (N-methyl Scopolamine) NMS-liganded muscarinic acetylcholine receptor M4 by using semiquantitative equilibrium and off-rate assay.
The target in assay [6] is Muscarinic acetylcholine receptor M3 (Homo sapiens) (UniProt P20309). As to the kind of experiment: Logarithm of affinity (log 1/M) at the muscarinic acetylcholine receptor M3 by using semiquantitative equilibrium and off-rate assay.
Sequence of Muscarinic acetylcholine receptor M3 (Homo sapiens) (P20309 whole entry, looked up): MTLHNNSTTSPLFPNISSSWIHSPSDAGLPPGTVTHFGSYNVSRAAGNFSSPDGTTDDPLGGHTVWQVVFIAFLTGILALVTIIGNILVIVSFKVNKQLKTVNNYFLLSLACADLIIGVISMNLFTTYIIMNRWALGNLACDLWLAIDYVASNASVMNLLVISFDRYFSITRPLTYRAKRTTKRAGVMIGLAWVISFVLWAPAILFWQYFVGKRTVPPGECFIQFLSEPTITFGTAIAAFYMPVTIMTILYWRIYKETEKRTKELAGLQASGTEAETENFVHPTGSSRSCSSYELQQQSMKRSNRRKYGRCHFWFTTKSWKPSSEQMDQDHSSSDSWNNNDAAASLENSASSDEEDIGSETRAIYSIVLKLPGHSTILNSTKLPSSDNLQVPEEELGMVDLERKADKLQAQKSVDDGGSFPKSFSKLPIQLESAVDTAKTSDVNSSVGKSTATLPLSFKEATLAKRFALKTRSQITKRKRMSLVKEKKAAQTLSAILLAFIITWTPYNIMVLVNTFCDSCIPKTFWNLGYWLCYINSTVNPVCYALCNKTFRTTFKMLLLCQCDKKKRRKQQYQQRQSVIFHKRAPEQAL
For assay [7] the target is unchanged. As to the kind of experiment: Subtype selectivity and the cooperativity with N-methyl Scopolamine (NMS) at muscarinic acetylcholine receptor M3; Activity range is 0.2-0.8.
Assay [8] has as its target T1, Muscarinic acetylcholine receptor M1 (Homo sapiens). As to the kind of experiment: Subtype selectivity and the cooperativity with N-methyl Scopolamine (NMS) at Muscarinic acetylcholine receptor M1; Activity range is 0.2-0.8.
Assay [9] deals with Muscarinic acetylcholine receptor M3 (Homo sapiens) (UniProt P20309). As to the kind of experiment: Logarithm of affinity (log 1/M) at the (N-methyl Scopolamine) NMS-liganded muscarinic acetylcholine receptor M3 by using semiquantitative equilibrium and off-rate assay.
In assay [10] the target is T2, Muscarinic acetylcholine receptor M4 (Homo sapiens). As to the kind of experiment: Logarithm of affinity (log 1/M) at the muscarinic acetylcholine receptor M4 by using semiquantitative equilibrium and off-rate assay.
For assay [11], the target named is T3, Muscarinic acetylcholine receptor M2 (Homo sapiens). As to the kind of experiment: Logarithm of affinity (log 1/M) at the muscarinic acetylcholine receptor M2 by using semiquantitative equilibrium and off-rate assay.
The target is the same in assay [12]. As to the kind of experiment: Subtype selectivity and the cooperativity with N-methyl Scopolamine (NMS) at Muscarinic acetylcholine receptor M2; Activity range is 1.2-3.
In assay [13] the target is T2, Muscarinic acetylcholine receptor M4 (Homo sapiens). As to the kind of experiment: Subtype selectivity and the cooperativity with N-methyl Scopolamine (NMS) at Muscarinic acetylcholine receptor M4; Activity range is 0.2-0.8.
The target is the same in assay [14]. Briefly: Subtype selectivity and the cooperativity with N-methyl Scopolamine (NMS) at Muscarinic acetylcholine receptor M4; Activity range is 0.81-1.19.
In assay [15] the target is T1, Muscarinic acetylcholine receptor M1 (Homo sapiens). Briefly: Subtype selectivity and the cooperativity with N-methyl Scopolamine (NMS) at Muscarinic acetylcholine receptor M1; Activity range is 1.2-3.
The target of assay [16] is Muscarinic acetylcholine receptor M3 (Homo sapiens) (UniProt P20309). As to the kind of experiment: Subtype selectivity and the cooperativity with N-methyl Scopolamine (NMS) at Muscarinic acetylcholine receptor M3; […].
In assay [17] the target is T3, Muscarinic acetylcholine receptor M2 (Homo sapiens). Briefly: Subtype selectivity and the cooperativity with N-methyl Scopolamine (NMS) at Muscarinic acetylcholine receptor M2.
Assay [18] has as its target T2, Muscarinic acetylcholine receptor M4 (Homo sapiens). Briefly: Subtype selectivity and the cooperativity with N-methyl Scopolamine (NMS) at Muscarinic acetylcholine receptor M4.

As to `Cc1ccc2c(c1)c1c3c(cc4c1n2C(=O)CC4)CNCC3`, the Log 1/M in assay [1] came to 5.9; in assay [2], 5.69; in [4] it was 6.47; in assay [5], 5.97; in assay [6], 5.71; in [9] it was 5.08. Also, the Log 1/M in assay [10] is 6.26; in assay [11], 6.09. In addition, the Cooperativity came to 3 in assay [3], 0.8 in assay [7], 0.8 in assay [8] and 3 in [12].

Regarding `COC(=O)c1c2c(c3c4cc(OC)c(OC)cc4n4c3c1CCC4=O)CCNC2`, the Log 1/M in [1] was 5.97; in assay [2], 6.05; in assay [4] it was 6.37; in assay [5], 5.96; in assay [6], 5.11; in [9], 4.9. Besides, the Log 1/M in assay [10] stood at 5.86; in assay [11], 6.22. The Cooperativity is 3 in assay [3], 0.8 in [7], 0.8 in assay [8] and 3 in assay [12].

For the compound `O=C1CCc2cc3c(c4c5cccc(O)c5n1c24)CCNC3`, the Log 1/M turned out to be 5.49 in assay [1]; 5.38 in assay [2]; 5.67 in [4]; 5.25 in assay [5]; 5.06 in [6]; 4.37 in assay [9]. Moreover, the Log 1/M was 5.43 in assay [10] and 5.36 in [11]. In addition, the Cooperativity in assay [7] was determined as 0.8; in assay [8], 0.8; in [13], 0.8; in assay [12] it was 3.

Take `O=C1CCc2cc3c(c4c5cc(CN6CCOCC6)ccc5n1c24)CCNC3`: the Log 1/M was 5.47 in assay [1]; 5.35 in assay [2]; 5.79 in assay [4]; 5.35 in [5]; 4.56 in [6]; 3.93 in assay [9]. In addition, the figures for the Log 1/M in [10] and in assay [11] were 6.12 and 5.53, respectively. For the same compound, the Cooperativity in [14] amounted to 1.19; in assay [7], 0.8; in assay [8] it was 0.8; in assay [12], 3.

Consider `O=C1CCc2cc3c(c4c5ccccc5n1c24)CCNC3`, for which the Log 1/M is 5.49 in [1]; 5.49 in [2]; 5.49 in assay [4]; 5.37 in assay [5]; 4.88 in assay [6]; 4.64 in [9]. For the same compound, the Log 1/M in assay [10] was 4.99; in [11], 5.31. For the same compound, the Cooperativity was 3 in [3], 0.8 in [7], 3 in assay [15] and 3 in assay [12].

Consider `COc1cccc2c3c4c(cc5c3n(c12)C(=O)CC5)CNCC4`, for which the Log 1/M in assay [1] came to 5.4; in assay [2], 5.07; in assay [4], 5.55; in [5] it was 5.11; in assay [6] it was 5.06; in assay [9] it was 4.75. The values for the Log 1/M in assay [10] and in assay [11] were 5.97 and 5.19, respectively. Also, the Cooperativity came to 3 in assay [3], 0.8 in assay [7], 0.8 in assay [8] and 3 in assay [12].

Regarding `O=C1CCc2cc3c(c4c5ccc(O)cc5n1c24)CCNC3`, the Log 1/M in assay [1] turned out to be 6.01; in assay [2] it was 5.62; in [4], 5.34; in [5], 5.36; in [6], 5.23; in assay [9], 5.29. Also, the figures for the Log 1/M in [10] and in assay [11] were 5.38 and 5.24, respectively. Also, the Cooperativity in [3] was found to be 3; in assay [16], 1.19; in assay [8], 0.8; in [12], 3.

For the compound `O=C(O)c1ccc2c(c1)c1c3c(cc4c1n2C(=O)CC4)CNCC3`, the Log 1/M in [1] came out at 5.43; in assay [2], 4.57; in assay [4], 5.6; in assay [5] it was 5.32; in [6], 4.51; in assay [9], 3.94. For the same compound, the Log 1/M stood at 5.39 in assay [10] and 5.31 in [11]. The Cooperativity is 0.8 in assay [7], 0.8 in assay [8], more than 3 in assay [17] and more than 3 in assay [18].

For the compound `COc1ccc2c(c1)c1c3c(cc4c1n2C(=O)CC4)CNCC3`, the Log 1/M in assay [1] amounted to 5.78; in assay [2], 5.23; in [4], 6.15; in [5] it was 5.57; in [6] it was 5.04; in [9] it was 4.54. The values for the Log 1/M in assay [10] and in assay [11] were 5.6 and 5.96, respectively. The Cooperativity was 1.19 in [14], 0.8 in assay [7], 0.8 in [8] and 3 in assay [12].

As to `COc1cccc2c1c1c3c(cc4c1n2C(=O)CC4(C)C)CNCC3`, the Log 1/M in assay [1] amounted to 6.65; in assay [2], 5.54; in assay [4], 6.16; in assay [5], 5.79; in assay [6], 4.92; in assay [9], 4.83. Besides, the Log 1/M was determined as 5.94 in assay [10] and 6.21 in [11]. In addition, the Cooperativity in assay [14] amounted to 1.19; in assay [7] it was 0.8; in [8], 0.8; in [12], 3.

Consider `O=C1CCc2cc3c(c4c5ccccc5n1c24)CNCC3`, for which the Log 1/M came to 5.85 in assay [1]; 5.7 in assay [2]; 5.57 in [4]; 5.48 in assay [5]; 5.78 in [6]; 4.69 in assay [9]. For the same compound, the Log 1/M in assay [10] stood at 5.31; in [11], 5.51. The Cooperativity turned out to be 3 in assay [3], 0.8 in assay [7], 0.8 in assay [8] and 3 in [12].

For the compound `COC(=O)c1cccc2c1c1c3c(cc4c1n2C(=O)CC4)CNCC3`, the Log 1/M in [1] stood at 5.47; in assay [2] it was 5.34; in assay [4] it was 5.82; in assay [5], 5.58; in assay [6], 4.98; in [9], 4.78. Also, the values for the Log 1/M in assay [10] and in assay [11] were 5.6 and 5.5, respectively. The Cooperativity in assay [7] was 0.8; in [8], 0.8; in [13], 0.8; in assay [12] it was 3.
